Residue numbers refer to the chain shown, from its start.
Tests used:
NTAN1 C75A = target: T1, NTAN1 C75A (Homo sapiens, UniProt Q96AB6, C75A); assay: In vitro deamidation assay, NTAN1 C75A mutant; type: biochemical; details: substrate NRAAA, 100 μM, 37 °C, pH 7.0, LC-MS; vs wild-type (Figure 1e); three independent experiments
T1 construct: The gene for full-length NTAN1 was cloned into pET-21a(+); made in house; host or cells: E. coli Rosetta 2(DE3)
T1 sequence (Q96AB6 1-310 C75A): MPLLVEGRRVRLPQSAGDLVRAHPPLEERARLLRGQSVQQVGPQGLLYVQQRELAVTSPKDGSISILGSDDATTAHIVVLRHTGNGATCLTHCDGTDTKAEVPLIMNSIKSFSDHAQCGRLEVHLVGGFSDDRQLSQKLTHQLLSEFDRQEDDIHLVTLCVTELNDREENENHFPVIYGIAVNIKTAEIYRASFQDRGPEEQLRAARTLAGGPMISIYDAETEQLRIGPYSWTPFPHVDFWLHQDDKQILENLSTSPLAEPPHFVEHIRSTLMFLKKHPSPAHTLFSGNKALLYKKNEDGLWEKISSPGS
Description: (§1) NTAN1 mutants were constructed using QuikChange Ⅱ Site-Directed Mutagenesis Kit (Agilent Technologies, Santa Clara, CA, USA). NTAN1 mutants, Q51A, S69A, T73A, T74A, C75A, H92A, S254A, T255A, and E260A were generated. The mutants were expressed and purified as for NTAN1.
(§2) Peptides with Nt-Asn which mimic potential substrates of NTAN1 were synthesized: NRA, NRAA, NRAAA, NRQVA, NRQVAA, NRQVAAA, NFAAR, NLAAR, NRAAR, NAAAR, NNAAR, NPAAR, NGAAR, and NDAAR. Non-Nt-Asn peptides, QRAAA and VRAAA, were also synthesized. NTAN1 (at concentrations of 0.5 μM, 0.16 μM, or 0.04 μM) and the peptides (at a concentration of 100 μM) were mixed and incubated at 37 °C in a buffer containing 200 mM NaCl and 10 mM HEPES-NaOH (pH 7.0). […] The deamidation coefficient of peptides catalyzed by NTAN1 was assessed by the slope of exponential curve drawn from the concentration of the substrate over incubation time.
(§3) The peptides were quantified by an LC-MS system (1260 Infinity/6430 Triple Quad, Agilent Technologies) equipped with a binary pump (G1312B), a thermostated column compartment (G1316C), a thermostat (G1330B), and an autosampler (G1367E). […] The data acquisition and processing were performed by using MassHunter Workstation Software Quantitative Analysis (Version B.05.00; Agilent Technologies, Santa Clara, CA, USA). […]

NTAN1 T255A = target: T2, NTAN1 T255A (Homo sapiens, UniProt Q96AB6, T255A); assay: In vitro deamidation assay, NTAN1 T255A mutant; type: biochemical; details: substrate NRAAA, 100 μM, 37 °C, pH 7.0, LC-MS (Figure 3c); three independent experiments
T2 construct: The gene for full-length NTAN1 was cloned into pET-21a(+); made in house; host or cells: E. coli Rosetta 2(DE3)
T2 sequence (Q96AB6 1-310 T255A): T1 sequence (Q96AB6 1-310 C75A) with A75C, T255A
Description: as §1, §2, §3

NTAN1 S254A = assay: In vitro deamidation assay, NTAN1 S254A mutant; type: biochemical, human; details: substrate NRAAA, 100 μM, 37 °C, pH 7.0, LC-MS (Figure 3b); three independent experiments
Description: as §1, §2, §3

NTAN1 Q51A = target: T3, NTAN1 Q51A (Homo sapiens, UniProt Q96AB6, Q51A); assay: In vitro deamidation assay, NTAN1 Q51A mutant; type: biochemical; details: substrate NRAAA, 100 μM, 37 °C, pH 7.0, LC-MS (Figure 3e); three independent experiments
T3 construct: The gene for full-length NTAN1 was cloned into pET-21a(+); made in house; host or cells: E. coli Rosetta 2(DE3)
T3 sequence (Q96AB6 1-310 Q51A): T1 sequence (Q96AB6 1-310 C75A) with Q51A, A75C
Description: as §1, §2, §3

Deamidation activity of NTAN1 C75A (NTAN1 C75A): completely abolished
Enzymatic activity of NTAN1 T255A (NTAN1 T255A): abolished
Deamidation activity of NTAN1 Q51A (NTAN1 Q51A): lost most deamidation activity
Substance: NRAAA [synthesized peptide with Nt-Asn, 5 mer model substrate of NTAN1]
Lower deamidation rate of NTAN1 S254A than wild-type NTAN1 (NTAN1 S254A): threefold
